Laboratory results published in patent publication US20230085307A1, “PYRIDAZINONE COMPOUND AND HERBICIDE” (NISSAN CHEMICAL CORPORATION, priority 2019, published 2023).

Tests used:
southern crabgrass = assay: Test Example 5: herbicidal effect by foliage application, plastic box (Table 20, symbol F); format: in vivo, southern crabgrass (Digitaria ciliaris); conditions: foliage application; for herbicidal effect on F: southern crabgrass (criteria 0-5): 320 g/ha, evaluated three weeks after application
Procedure, shortened: (§1)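 Plants were sown into sterilized diluvial soil under about 1.5 cm cover and kept in a greenhouse at 25° C. to 30° C. Fourteen days on, foliage received an even spray of the diluted emulsion. Herbicidal or crop effect was judged three weeks afterwards.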

windgrass = assay: Test Example 5: herbicidal effect by foliage application, plastic box (Table 20, symbol L); format: in vivo, windgrass (Apera spica-venti); conditions: foliage application; for herbicidal effect on L: windgrass (criteria 0-5): 320 g/ha, evaluated three weeks after application
Procedure, shortened: as §1

velvetleaf = assay: Test Example 5: herbicidal effect by foliage application, plastic box (Table 20, symbol M); format: in vivo, velvetleaf (Abutilon theophrasti); conditions: foliage application; for herbicidal effect on M: velvetleaf (criteria 0-5): 320 g/ha, evaluated three weeks after application
Procedure, shortened: as §1

wild oat = assay: Test Example 5: herbicidal effect by foliage application, plastic box (Table 20, symbol I); format: in vivo, wild oat (Avena fatua); conditions: foliage application; for herbicidal effect on I: wild oat (criteria 0-5): 320 g/ha, evaluated three weeks after application
Procedure, shortened: as §1

lambsquarters = assay: Test Example 5: herbicidal effect by foliage application, plastic box (Table 20, symbol O); format: in vivo, lambsquarters (Chenopodium album); conditions: foliage application; for herbicidal effect on O: lambsquarters (criteria 0-5): 320 g/ha, evaluated three weeks after application
Procedure, shortened: as §1

Italian ryegrass = assay: Test Example 5: herbicidal effect by foliage application, plastic box (Table 20, symbol K); format: in vivo, Italian ryegrass (Lolium multiflorum); conditions: foliage application; for herbicidal effect on K: Italian ryegrass (criteria 0-5): 320 g/ha, evaluated three weeks after application
Procedure, shortened: as §1

blackgrass = assay: Test Example 5: herbicidal effect by foliage application, plastic box (Table 20, symbol J); format: in vivo, blackgrass (Alopecurus myosuroides); conditions: foliage application; for herbicidal effect on J: blackgrass (criteria 0-5): 320 g/ha, evaluated three weeks after application
Procedure, shortened: as §1

barnyard grass = assay: Test Example 5: herbicidal effect by foliage application, plastic box (Table 20, symbol H); format: in vivo, barnyard grass (Echinochloa crus-galli); conditions: foliage application; for herbicidal effect on H: barnyard grass (criteria 0-5): 320 g/ha, evaluated three weeks after application
Procedure, shortened: as §1

green foxtail = assay: Test Example 5: herbicidal effect by foliage application, plastic box (Table 20, symbol G); format: in vivo, green foxtail (Setaria viridis); conditions: foliage application; for herbicidal effect on G: green foxtail (criteria 0-5): 320 g/ha, evaluated three weeks after application
Procedure, shortened: as §1

persian speedwell = assay: Test Example 5: herbicidal effect by foliage application, plastic box (Table 20, symbol R); format: in vivo, Persian speedwell (Veronica persica); conditions: foliage application; for herbicidal effect on R: persian speedwell (criteria 0-5): 320 g/ha, evaluated three weeks after application
Procedure, shortened: as §1

chickweed = assay: Test Example 5: herbicidal effect by foliage application, plastic box (Table 20, symbol P); format: in vivo, common chickweed (Stellaria media); conditions: foliage application; for herbicidal effect on P: chickweed (criteria 0-5): 320 g/ha, evaluated three weeks after application
Excerpt: [Test Example 5] Herbicidal Effect Test by Foliage Application
Sterilized diluvial soil was placed in a plastic box having a length of 21 cm, a width of 13 cm, and a depth of 7 cm. The seeds of each of southern crabgrass, green foxtail, barnyard grass, wild oat, blackgrass, Italian ryegrass, windgrass, velvetleaf, redroot pigweed, lambsquarters, chickweed, false cleavers, persian speedwell, corn, soybean, rice, wheat, beet, and rapeseed were sowed in a spot-like manner and covered with the soil having a thickness of about 1.5 cm. Thereafter, the plants were grown in a greenhouse at 25° C. to 30° C. After 14-day growth of the plants, the emulsion agent of the compound of the present invention prepared according to Formulation Example 2 was diluted with water so as to achieve a predetermined herbicide amount, and the diluted emulsion agent was uniformly applied to a foliage part with a small-sized spray. Three weeks after the herbicide application, the effect of the herbicide on each plant was evaluated according to the criteria of Test Example 1.

redroot pigweed = assay: Test Example 5: herbicidal effect by foliage application, plastic box (Table 20, symbol N); format: in vivo, redroot pigweed (Amaranthus retroflexus); conditions: foliage application; for herbicidal effect on N: redroot pigweed (criteria 0-5): 320 g/ha, evaluated three weeks after application
Procedure, shortened: as §1

[1] = AAH 80 g/ha, three weeks after application

SMILES | herbicidal effect on F: southern crabgrass (criteria 0-5) (southern crabgrass) | herbicidal effect on L: windgrass (criteria 0-5) (windgrass) | herbicidal effect on M: velvetleaf (criteria 0-5) (velvetleaf) | herbicidal effect on I: wild oat (criteria 0-5) (wild oat) | herbicidal effect on O: lambsquarters (criteria 0-5) (lambsquarters) | herbicidal effect on K: Italian ryegrass (criteria 0-5) (Italian ryegrass) | herbicidal effect on J: blackgrass (criteria 0-5) (blackgrass) | herbicidal effect on H: barnyard grass (criteria 0-5) (barnyard grass) | herbicidal effect on G: green foxtail (criteria 0-5) (green foxtail) | herbicidal effect on R: persian speedwell (criteria 0-5) (persian speedwell) | herbicidal effect on P: chickweed (criteria 0-5) (chickweed) | herbicidal effect on N: redroot pigweed (criteria 0-5) (redroot pigweed) | also measured
CCCC(=O)Oc1c(C)nn(C)c(=O)c1-c1c(-c2ccccc2SC)sc2ccc(C)cc12 [2-143] | 0 (Herbicidal rate of 5% or less (almost no effect)) | 0 (Herbicidal rate of 5% or less (almost no effect)) | 0 (Herbicidal rate of 5% or less (almost no effect)) | 0 (Herbicidal rate of 5% or less (almost no effect)) | 0 (Herbicidal rate of 5% or less (almost no effect)) | 0 (Herbicidal rate of 5% or less (almost no effect)) | 0 (Herbicidal rate of 5% or less (almost no effect)) | 0 (Herbicidal rate of 5% or less (almost no effect)) | 0 (Herbicidal rate of 5% or less (almost no effect)) | 0 (Herbicidal rate of 5% or less (almost no effect)) | 3 (Herbicidal rate of 40% or more and less than 70%) | 0 (Herbicidal rate of 5% or less (almost no effect)) | –
COc1cc(OC)cc(-c2sc3ccccc3c2-c2c(O)c(OC)nn(C)c2=O)c1 [1-184] | – | – | – | – | – | – | – | – | – | – | – | – | F: southern crabgrass, herbicidal effect (southern crabgrass; [1]): 0 (Herbicidal rate of 5% or less (almost no effect)); L: windgrass, herbicidal effect (windgrass; [1]): 0 (Herbicidal rate of 5% or less (almost no effect)); M: velvetleaf, herbicidal effect (velvetleaf; [1]): 0 (Herbicidal rate of 5% or less (almost no effect)); I: wild oat, herbicidal effect (wild oat; [1]): 0 (Herbicidal rate of 5% or less (almost no effect)); O: lambsquarters, herbicidal effect (lambsquarters; [1]): 0 (Herbicidal rate of 5% or less (almost no effect)); K: Italian ryegrass, herbicidal effect (Italian ryegrass; [1]): 0 (Herbicidal rate of 5% or less (almost no effect)); J: blackgrass, herbicidal effect (blackgrass; [1]): 0 (Herbicidal rate of 5% or less (almost no effect)); H: barnyard grass, herbicidal effect (barnyard grass; [1]): 0 (Herbicidal rate of 5% or less (almost no effect)); G: green foxtail, herbicidal effect (green foxtail; [1]): 0 (Herbicidal rate of 5% or less (almost no effect)); R: persian speedwell, herbicidal effect (persian speedwell; [1]): 0 (Herbicidal rate of 5% or less (almost no effect)); P: chickweed, herbicidal effect (chickweed; [1]): 4 (Herbicidal rate of 70% or more and less than 90%); N: redroot pigweed, herbicidal effect (redroot pigweed; [1]): 0 (Herbicidal rate of 5% or less (almost no effect))
CCCC(=O)Oc1c(C)nn(C)c(=O)c1-c1c(-c2ccc(F)cc2OC)sc2ccc(-c3ccc(OC(C)C)cc3)cc12 [2-169] | 0 (Herbicidal rate of 5% or less (almost no effect)) | 0 (Herbicidal rate of 5% or less (almost no effect)) | 0 (Herbicidal rate of 5% or less (almost no effect)) | 0 (Herbicidal rate of 5% or less (almost no effect)) | 3 (Herbicidal rate of 40% or more and less than 70%) | 0 (Herbicidal rate of 5% or less (almost no effect)) | 0 (Herbicidal rate of 5% or less (almost no effect)) | 0 (Herbicidal rate of 5% or less (almost no effect)) | 0 (Herbicidal rate of 5% or less (almost no effect)) | 0 (Herbicidal rate of 5% or less (almost no effect)) | 0 (Herbicidal rate of 5% or less (almost no effect)) | 2 (Herbicidal rate of 20% or more and less than 40%) | –
